Assay results from PubChem BioAssay (NCI).
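Growth conditions: 96-well plates. Treatment: test compound, 48 hours, 5 concentrations. Analysis: linear interpolation between bracketing concentrations; unreached endpoints set to highest concentration. Abbreviation: GI50, concentration required for 50% inhibition of growth. Definition used: TGI = concentration required for complete inhibition of growth.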

Legend:
Test in all cases: NCI anticancer screen, dose series, 48 h
[1] = tested on: A549 NSCLC
[2] = tested on: CAKI-1 renal
[3] = tested on: CCRF-CEM leukemia
[4] = tested on: HOP-92 NSCLC
[5] = tested on: IGROV1 ovarian
[6] = tested on: SK-OV-3 ovarian
[7] = tested on: SN12C renal
[8] = tested on: SW-620 colon
[9] = tested on: NCI-H460 lung
[10] = tested on: RXF 393 renal

| SMILES | TGI [1] [µM] | TGI [2] [µM] | TGI [3] [µM] | TGI [4] [µM] | TGI [5] [µM] | TGI [6] [µM] | TGI [7] [µM] | TGI [8] [µM] | GI50 [1] [µM] | GI50 [2] [µM] | GI50 [3] [µM] | GI50 [5] [µM] | GI50 [9] [µM] | TGI [9] [µM] | GI50 [10] [µM] | TGI [10] [µM] | GI50 [6] [µM] | GI50 [7] [µM] | GI50 [8] [µM] | GI50 [4] [µM] |
| --- | --- | --- | --- | --- | --- | --- | --- | --- | --- | --- | --- | --- | --- | --- | --- | --- | --- | --- | --- | --- |
| O=C(c1ccncc1)n1nc(-c2ccccc2)c(N=Nc2ccccc2[N+](=O)[O-])c1-c1ccccc1 | > 100 | > 100 | > 100 | > 100 | > 100 | > 100 | > 100 | > 100 |  |  |  |  |  |  |  |  |  |  |  |  |
| O=C1NC(=S)S/C1=C(/C=C(\CC(=O)c1ccccc1)c1ccc(Cl)cc1)c1ccccc1 | > 100 | > 100 | 73.7 |  | > 100 | > 100 | 56.3 | > 100 | 20.2 | 33.7 | 24.7 | 41.6 | 19.9 | 45.7 | 23.4 | 82.1 | > 100 | 25.3 | 42.9 |  |
| Cc1ccccc1C1=C(C(=O)Nc2ccc(Cl)c(Cl)c2)NC(=S)NC1N (stereo not drawn) | > 100 | > 100 | > 100 |  | > 100 | > 100 | > 100 | > 100 |  |  |  |  |  | > 100 |  | > 100 |  |  |  |  |
| Cc1c(C(=O)NCCN2CCOCC2)cn2ncnc(Oc3ccc(NC(=O)Nc4ccc(Cl)c(C(F)(F)F)c4)cc3)c12 |  | 2.92 |  | 2.8 |  |  |  |  |  | 1.46 |  |  | 1.16 | 2.8 | 1.22 | 2.73 |  |  |  | 1.02 |
| C[C@]12CCCC(=O)C1(O)C[C@H](C(=O)O)CC2 (stereo partly drawn) | > 100 | > 100 | > 100 | > 100 | > 100 | > 100 | > 100 | > 100 |  |  |  |  |  | > 100 |  |  |  |  |  |  |
| CCOc1cccc(/C=N/NC(=O)C(=O)Nc2cccc(C(F)(F)F)c2)c1O | > 100 | 6.49 | 7.41 |  | 25.8 | > 100 | > 100 | > 100 | 2.04 | 0.528 | 0.322 | 1.3 | 0.808 | 60.3 | 4.07 | 55.1 | 5.28 | 2.66 | 3.09 |  |
| NC(=S)NNc1c([N+](=O)[O-])cnn(-c2ccccc2)c1=O | 49.9 | 33.9 |  | 34.8 | 35 | 36 | 31.4 | 26.4 |  |  |  |  |  | 34 |  | 33.9 |  |  |  |  |
| CCOC(=O)/C=C1\CCCC12OCCO2 | > 100 | > 100 | > 100 |  | > 100 | > 100 | > 100 | > 100 |  |  |  |  |  | > 100 |  | > 100 |  |  |  |  |
| COC(=O)[C@]12CCC(C)[C@H](C)[C@H]1C1=CCC3[C@@]4(C)CC[C@H](OC(C)=O)C(C)(C)C4CC[C@@]3(C)C1(C)C(O)C2 (stereo partly drawn) | > 100 | > 100 | > 100 | > 100 | > 100 | > 100 | > 100 | > 100 |  |  |  |  |  | > 100 |  |  |  |  |  |  |
| C/C=C/C=C/C=C/C=C/C(=O)O | > 100 | > 100 | > 100 |  | > 100 | > 100 | > 100 | > 100 |  |  |  |  |  | > 100 |  | > 100 |  |  |  |  |
| CN(C)CCCNC(=O)c1ccc2c(c1)oc1cc3ccccc3c(=O)n12 | 16 | 28.6 |  | > 50 | 43.5 | > 50 | 43.4 | > 50 | 5.98 | 11 |  | 9.94 | 9.96 | 39.9 | 6.85 | 18.2 | 38.7 | 15.4 | 15.5 | > 50 |
| N.N.N.N.O=C([O-])C(Cl)Cl.O=C([O-])C(Cl)Cl.[Co+3].[O-][Cl+3]([O-])([O-])[O-] | > 100 |  | > 100 | > 100 | > 100 | > 100 | > 100 | > 100 | > 100 |  | > 100 | > 100 | > 100 | > 100 |  |  | > 100 | > 100 | > 100 | > 100 |
| Cc1cc2c(cc1Cl)SC1=NN(C)C(N(C)C)N1S2(=O)=O (stereo not drawn) | > 100 | > 100 | > 100 | > 100 | > 100 | > 100 | > 100 | > 100 | > 100 | > 100 | > 100 | > 100 | > 100 | > 100 |  |  | > 100 | > 100 | > 100 | 55 |
| CCCCN(CCCC)c1c([N+](=O)[O-])c(=O)nc2ccccn12 | > 100 |  | > 100 | > 100 | > 100 | > 100 | > 100 | > 100 |  |  |  |  |  | 79.4 |  |  |  |  |  |  |
| COc1cc(C(=O)Nc2cc3c(cc2Oc2cc(C)cc(C)c2)C(=O)N(C)[C@@H](CC(=O)N(C)O)C(=O)N3)c(Br)c(OC)c1OC | 0.00742 | 2.58 |  | < 0.00333 | 0.0104 | 0.00955 | < 0.00333 | 0.0149 | < 0.00333 | 0.496 |  | < 0.00333 | < 0.00333 | 0.00425 | < 0.00333 | 0.00609 | < 0.00333 | < 0.00333 | < 0.00333 | < 0.00333 |
| CCOP(=O)(OCC)OC(C#N)c1ccc(-c2ccccc2)cc1 (stereo not drawn) | 34.9 | 47.6 | 49.7 | 52.6 | > 100 | 78.5 | 36.8 | 26.8 |  |  |  |  |  | 36.3 |  |  |  |  |  |  |
| O=C1C(c2ccccc2)=[N+]([O-])c2ccccc21 | 48.7 |  | > 100 | 20.7 |  | 31.4 | 34.2 | 22.3 |  |  |  |  |  | 32.7 |  |  |  |  |  |  |
| CC(=O)OCC(OC(C)=O)C(OC(C)=O)C(OC(C)=O)C(=O)CNn1c(-c2ccccc2Cl)nc2ccccc2c1=O (stereo not drawn) | > 100 | > 100 | > 100 |  |  | > 100 | > 100 | > 100 |  |  |  |  |  | > 100 |  | > 100 |  |  |  |  |
| Cc1nc2sccn2c1-c1csc(Nc2cccc(Cl)c2C)n1 | 49.2 | 33.3 | 82.1 |  | 73.2 | > 100 | > 100 | 24.3 | 3.23 | 3.73 | 4.01 | 8.83 | 3.58 | 20.3 | 4.19 | 37.6 | 21.2 | 6.06 | 3.91 |  |
| CCCOc1ccc2nc(NC(=O)OC)[nH]c2c1 | > 100 | > 100 | > 100 | > 100 | > 100 |  | > 100 | > 100 | 0.337 | 0.29 | 0.273 | 0.481 | 0.324 | > 100 |  |  | 0.262 | 0.597 | 0.133 | 0.18 |
| COC(=O)C1=C(C(=O)OC)SC(=CC#CC=C2SC(C(=O)OC)=C(C(=O)OC)S2)S1 | > 100 | > 68.3 | > 100 | 35.2 | 45.8 | 31.5 | > 52.5 | > 52 |  |  |  |  |  | > 100 |  |  |  |  |  |  |
| CC1C(=O)OCC2=CCN3CCC(OC(=O)C(C)C1(C)O)C23 (stereo not drawn) | > 100 | > 100 | > 100 | > 100 | > 100 | > 100 | > 100 | > 100 |  |  |  |  |  | > 100 |  |  |  |  |  |  |
| COc1ccc(/C=C\c2cc(OC)c(O[Si](C)(C)C(C)(C)C)c(OC)c2)cc1 | > 100 | > 100 | 49.8 | > 100 | > 100 | > 100 | > 100 | > 100 |  |  |  |  |  | > 100 |  |  |  |  |  |  |
| Nc1ccccc1C#C/C=C\C#Cc1ccccc1 | 77.7 | 8.35 | 29.9 |  |  | 81.3 | 29.7 | 41.7 | 17.8 | 1.44 | 0.804 |  | 18.4 | 52.6 | 29.9 | > 100 | 32 | 13.4 | 19.3 |  |
| COc1ccc(-c2oc3c(OC)c(OC)c(OC)c(OC)c3c(=O)c2OC)cc1OC | > 100 | > 100 | > 100 | 0.0897 | > 100 | > 100 | > 100 | > 100 |  |  |  |  |  | 57 |  |  |  |  |  |  |
| O=c1cccc(C2CC(CO)C3CCCCN3C2)[nH]1 (stereo not drawn) | > 100 | > 100 | > 100 | > 100 | > 100 | > 100 | > 100 | > 100 |  |  |  |  |  | > 100 |  |  |  |  |  |  |
| CC[O-].CC[O-].O=S(=O)([O-])c1ccc([O-])c2ncccc12.O=S(=O)([O-])c1ccc([O-])c2ncccc12.[Ti+4] | > 100 | > 100 | > 100 |  | > 100 | > 100 | > 100 | > 100 | 39.1 | > 100 | 53.3 | > 100 |  |  |  |  | > 100 | > 100 | > 100 |  |
